Results published in article PMC7656518 (ACS chemical biology, 2018).
Positions of bridges follow the written chain, without caps; N, C: chain ends. Residues, ends and D or L forms follow the SMILES beside them.

What was measured:
rat INS-1/832-13 β-cells = test: Alamar Blue β-cell viability; conditions: 30 μM peptide
[1] = system: hCT(a), hAMY1(a), hAMY2(a), hAMY3(a) receptors; test: cAMP production, overall statement for the four amylin-responsive receptors; type: cell-based, human; conditions: stimulation of cAMP production at hCT(a)
[2] = Amyloid formation in presence of anionic large unilamellar vesicles; type: physicochemical; conditions: LUV's 25% POPS / 75% POPC, final concentration 400 μM
[3] = Thioflavin-T fluorescence amyloid formation kinetics and TEM in Tris buffer
hAMY3(a) receptor = biological target: T1, hAMY3(a) receptor (Homo sapiens, UniProt O60896+P30988); test: cAMP production; type: cell-based
T1 sequence (P30988 25-474): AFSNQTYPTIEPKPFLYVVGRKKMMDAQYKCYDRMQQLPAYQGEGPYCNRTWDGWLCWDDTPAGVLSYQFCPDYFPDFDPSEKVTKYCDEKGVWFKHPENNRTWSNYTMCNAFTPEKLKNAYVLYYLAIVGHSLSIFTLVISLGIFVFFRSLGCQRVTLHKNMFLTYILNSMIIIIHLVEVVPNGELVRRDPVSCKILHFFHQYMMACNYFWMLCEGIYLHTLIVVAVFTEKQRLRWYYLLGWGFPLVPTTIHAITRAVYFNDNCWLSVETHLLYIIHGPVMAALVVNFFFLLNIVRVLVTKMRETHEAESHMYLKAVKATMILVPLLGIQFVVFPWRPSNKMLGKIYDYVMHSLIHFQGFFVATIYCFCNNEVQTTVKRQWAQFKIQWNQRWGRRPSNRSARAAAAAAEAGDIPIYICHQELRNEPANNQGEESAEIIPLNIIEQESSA
T1 sequence (O60896 24-148 partner): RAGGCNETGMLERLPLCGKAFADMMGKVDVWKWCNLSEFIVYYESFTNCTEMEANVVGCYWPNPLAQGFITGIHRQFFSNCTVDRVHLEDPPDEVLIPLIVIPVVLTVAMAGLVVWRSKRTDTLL

hAMY1(a) receptor = hAMY1(a) receptor (Homo sapiens, UniProt O60894+P30988); test: cAMP production; type: cell-based
hAMY1(a) receptor, sequence (O60894 27-148 partner, one chain of several): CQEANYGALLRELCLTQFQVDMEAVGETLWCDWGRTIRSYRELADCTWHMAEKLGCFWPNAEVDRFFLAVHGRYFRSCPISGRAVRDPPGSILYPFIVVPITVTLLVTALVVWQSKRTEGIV

hCT(a) receptor = biological target: T2, hCT(a) receptor (Homo sapiens, UniProt P30988); test: cAMP production; type: cell-based
T2 sequence (P30988 25-474): T1 sequence (P30988 25-474)

hAMY2(a) receptor = hAMY2(a) receptor (Homo sapiens, UniProt O60895+P30988); test: cAMP production; type: cell-based
hAMY2(a) receptor, sequence (O60895 43-175 partner, one chain of several): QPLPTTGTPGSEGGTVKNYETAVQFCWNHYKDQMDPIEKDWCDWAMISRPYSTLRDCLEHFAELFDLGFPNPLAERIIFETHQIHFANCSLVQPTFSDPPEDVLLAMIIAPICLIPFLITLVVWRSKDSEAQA

[4] = Thioflavin-T fluorescence amyloid formation kinetics and TEM in PBS; type: physicochemical; conditions: PBS (10 mM phosphate 140 mM KCl) pH 7.4

## CC[C@H](C)[C@H](NC(=O)[C@H](C)NC(=O)CNC(=O)[C@H](CC(C)C)NC(=O)[C@H](CCCCN)NC(=O)[C@H](CC(N)=O)NC(=O)[C@H](CO)NC(=O)[C@H](CO)NC(=O)[C@@H]1CCCN1C(=O)[C@H](C)NC(=O)[C@H](CC(C)C)NC(=O)[C@H](Cc1ccccc1)NC(=O)[C@H](CC(N)=O)NC(=O)[C@H](C)NC(=O)[C@H](CC(C)C)NC(=O)[C@H](CCCNC(=N)N)NC(=O)[C@H](CCC(N)=O)NC(=O)[C@@H](NC(=O)[C@H](CCC(=O)O)NC(=O)[C@@H]1CSSC[C@H](NC(=O)[C@@H](N)CCCCN)C(=O)NCC(=O)N[C@@H]([C@@H](C)O)C(=O)N[C@@H](C)C(=O)N[C@@H]([C@@H](C)O)C(=O)N1)[C@@H](C)O)C(=O)N[C@@H](Cc1ccccc1)C(=O)N[C@@H](CO)C(=O)N1CCC[C@H]1C(=O)N[C@H](C(=O)N[C@@H](CCCCN)C(=O)N[C@@H](CCSC)C(=O)NCC(=O)N[C@@H](CO)C(=O)N[C@@H](CC(N)=O)C(=O)N[C@H](C(=O)N[C@@H](Cc1ccc(O)cc1)C(N)=O)[C@@H](C)O)[C@@H](C)O [b-amylin] (H-KCGTATCETQRLANFLAPSSNKLGAIFSPTKMGSNTY-NH2; disulfide 2-7; N-terminus assumed)
Rat INS-1/832-13 β-cells; 24 h incubation
  toxicity (in words): did not exhibit any toxicity
Rat INS-1/832-13 β-cells; 84 h incubation
  toxicity (in words): not toxic
[1]
  fold less potent than h-amylin: at least 300 fold
[2]
  amyloid formation in presence of LUV's: no amyloid formation was detected
[3]; 16 μM peptide, 32 μM thioflavin-T, pH 7.4, 25°C, 20 mM Tris, 6 days of incubation
  increase in thioflavin-T fluorescence signal: no increase in thioflavin-T fluorescence signal was observed
[3]; 20 mM Tris pH 7.4, highest concentration examined 64 μM
  amyloid formation at a range of peptide concentrations: no amyloid was detected
hAMY3(a) receptor; COS-7
  Emax: 62.4 ± 9.31%
hAMY3(a) receptor; SEM
  EC50: 1350 nM
hAMY3(a) receptor; potency of b-amylin relative to h-amylin at hAMY3(a)
  Fold-change: > −2000
hAMY1(a) receptor; COS-7
  Emax: 83.1 ± 10.6%
hAMY1(a) receptor; SEM
  EC50: 912 nM
hAMY1(a) receptor; hAMY1(a), cAMP production
  agonist character: full agonist
hAMY1(a) receptor; potency of b-amylin relative to h-amylin at hAMY1(a)
  Fold-change: > −5000
hCT(a) receptor; COS-7
  Emax: 62.9 ± 8.25%
hCT(a) receptor; SEM
  EC50: 1550 nM
hCT(a) receptor; hCT(a), cAMP production
  agonist character: partial agonist
hCT(a) receptor; potency of b-amylin relative to h-amylin at hCT(a)
  Fold-change: > −400
hAMY2(a) receptor; COS-7
  Emax: 73.9 ± 4.27%
hAMY2(a) receptor; SEM
  EC50: 1170 nM
hAMY2(a) receptor; potency of b-amylin relative to h-amylin at hAMY2(a)
  Fold-change: > −600
[4]
  amyloid fibrils by TEM: no amyloid fibrils were detected
[4]; 7 days of incubation
  increase in thioflavin-T fluorescence signal: no significant increase in thioflavin-T fluorescence signal was observed
